The text below walks through data of patent US12559454B2, “Benzenesulfonamide derivatives and uses thereof” (2692372 Ontario, Inc., priority 2019, dated 2026).

In experiment [1] the test system is MOLM-13 cells. In words: CellTiter-Blue cell viability, MOLM-13. The conditions noted are these: Homo sapiens, 72 hrs exposure. The format is cell-based. On the procedure: (§1) Anti-cancer efficacy of exemplary compounds of this application was assessed in vitro in different cancer cell lines. Cell viability was examined following treatment at various concentration of inhibitor (0.097656-50 μM) using a cell Titer-Blue cell viability assay. 1×10^4 cells (NHF, MV4-11, K562 and MOLM-13 cells)/well were plated in 96-well assay plates in culture medium. All cells were grown in DMEM, IMDM and RPMI-1640 supplemented with 10% FBS. After 24 hrs, test compounds and vehicle controls were added to appropriate wells so the final volume was 100 μl in each well. The cells were cultured for the desired test exposure period (72 hrs) at 37° C. and 5% CO2. The assay plates were removed from 37° C. incubator and 20 μl/well of CellTiter-Blue® Reagent was added. The plates were incubated using standard cell culture conditions for 1-4 hours and the plates were shaken for 10 seconds and record fluorescence at 560/590 nm.
(Resazurin is reduced to fluorescent resorufin, in cell work by metabolically active cells.)

Experiment [2] deals with MV4-11 cells. In words: CellTiter-Blue cell viability, MV-4-11. In kind it is cell-based. The conditions noted are these: Homo sapiens, 72 hrs exposure. On the procedure: as §1
In experiment [3] the test system is K562 cells. In words: CellTiter-Blue cell viability, K562. The format is cell-based. The conditions noted are these: Homo sapiens, 72 hrs exposure. On the procedure:
as §1

For experiment [4], the system named is tubulin. In words: Tubulin polymerization assay. The conditions noted are these: for % Inhibition: Vmax normalized to tubulin only control; for % D.O.P.: degree of polymerization relative to tubulin control. In kind it is biochemical. On the procedure: A96-well half-area clear flat-bottom microplate (Corning® #3697) was pre-heated in a plate reader (Cytation 3, BioTek) at 37° C. for 15 minutes prior to the start of each assay. Tubulin polymerization buffer (80 mM PIPES pH 6.9, 2 mM MgCl2, 0.5 mM EGTA, 15% glycerol, 1 mM GTP) was prepared from stock solutions and placed on ice. Inhibitors were prepared to M concentrations in buffer (80 mM PIPES pH 6.9, 2 mM MgCl2, 0.5 mM EGTA, 5% DMSO) from DMSO stock solutions. After the assay plate was pre-warmed, 10 μL of inhibitor or buffer control was added to selected wells. Every assay contained a tubulin only negative control for normalization of data, and a batabulin positive control. The assay plate was incubated at 37° C. for 3 minutes. During this time, a frozen aliquot of tubulin (10 mg/mL) in buffer (80 mM PIPES pH 6.9, 2 mM MgCl2, 0.5 mM EGTA) was defrosted by placing in a room temperature water bath. Once thawed, 200 μL of tubulin was mixed with 420 μL ice cold tubulin polymerization buffer (3 mg/mL tubulin in 80 mM PIPES, pH 6.9, 2 mM MgCl2, 0.5 mM EGTA, 1 mM GTP, 10.2% glycerol). To a 96-well plate on ice, aliquots of 100 μL tubulin was added to each well. From this plate, 90 μL of tubulin was immediately pipetted into all sample wells of the warmed assay plate using a multi-channel pipette. The assay plate was immediately put in the reader at 37° C. and shook for 5 s with orbital shaking at medium speed. The reader recorded the absorbance at 340 nm every 15 s for 30 min.
The resulting absorbance curves were normalized by subtracting each data point by the absorbance at time 0.
The largest change in absorbance over the assay time course was also recorded and related to the tubulin control as the % degree of polymerization (% D.O.P.).

The structures appear in SMILES notation.

The IC50 is the concentration at which inhibition is half-maximal. Low readings indicate inhibition by little substance, high ones a need for much substance.

For the molecule `CN(C)S(=O)(=O)c1c(F)c(F)c(F)c(F)c1C1CC1` [Compound I-39, 2-cyclopropyl-3,4,5,6-tetrafluoro-N,N-dimethylbenzenesulfonamide], the half-maximal inhibitory concentration (IC50) in experiment [1] was 1 to 10 µM; in experiment [2] it was 1 to 10 µM; in experiment [3] it was above 10 µM.

As to `COc1ccc(NS(=O)(=O)c2c(F)c(F)c(F)c(F)c2OC(C)C)cc1F` [Compound I-61, 2,3,4,5-tetrafluoro-N-(3-fluoro-4-methoxyphenyl)-6-isopropoxybenzenesulfonamide], the half-inhibitory concentration (IC50) in experiment [1], in experiment [2] and in experiment [3] was 0.1 to 1 µM in each case. Further, the “% Inhibition” value in experiment [4] is given as “A (<10%)”. Besides, the “% D.O.P.” value in experiment [4] was “A (>85%)”.

Take `CN(C)S(=O)(=O)c1c(F)c(F)c(F)c(F)c1Cc1ccccc1` [Compound I-24, 2-benzyl-3,4,5,6-tetrafluoro-N,N-dimethylbenzenesulfonamide]: the half-inhibitory concentration (IC50) is 1 to 10 µM in experiment [1], 1 to 10 µM in experiment [2] and above 10 µM in experiment [3].

As for `CN(C)S(=O)(=O)c1c(F)c(F)c(F)c(F)c1OCc1ccncc1` [Compound I-17, 2,3,4,5-tetrafluoro-N,N-dimethyl-6-(pyridin-4-ylmethoxy)benzenesulfonamide], the IC50 in experiment [1] is 1 to 10 µM; in experiment [3], above 10 µM.

Regarding `CN(C)S(=O)(=O)c1c(F)c(F)c(F)c(F)c1OCc1ccc(F)cc1F` [Compound I-16, 2-((2,4-difluorobenzyl)oxy)-3,4,5,6-tetrafluoro-N,N-dimethylbenzenesulfonamide], the IC50 in experiment [1] is 1 to 10 µM; in experiment [2], 0.1 to 1 µM; in experiment [3], above 10 µM.

For the molecule `CC(C)COC(=O)c1c(F)c(F)c(F)c(F)c1S(=O)(=O)N(C)C` [Compound I-32, isobutyl 2-(N,N-dimethylsulfamoyl)-3,4,5,6-tetrafluorobenzoate], the IC50 in experiment [1] is 1 to 10 µM; in experiment [2], 0.1 to 1 µM; in experiment [3] it was above 10 µM.

For the molecule `CCOc1c(F)c(F)c(F)c(F)c1S(=O)(=O)N(C)C` [Compound I-5, 2-ethoxy-3,4,5,6-tetrafluoro-N,N-dimethylbenzenesulfonamide], the IC50 in experiment [1] and in experiment [3] was above 10 µM in each case.

Take `CN(C)S(=O)(=O)c1c(F)c(F)c(F)c(F)c1OCc1ccccc1` [Compound I-2, 2-(benzyloxy)-3,4,5,6-tetrafluoro-N,N-dimethylbenzenesulfonamide]: the IC50 is 1 to 10 µM in experiment [1], 0.1 to 1 µM in experiment [2] and above 10 µM in experiment [3].

With `CN(C)S(=O)(=O)c1c(F)c(F)c(F)c(F)c1OCc1ccccn1` [Compound I-19, 2,3,4,5-tetrafluoro-N,N-dimethyl-6-(pyridin-2-ylmethoxy)benzenesulfonamide], the half-inhibitory concentration (IC50) in experiment [1] is 1 to 10 µM; in experiment [2] it was 1 to 10 µM; in experiment [3], above 10 µM.

Regarding `COc1ccc(NS(=O)(=O)c2c(F)c(F)c(F)c(F)c2C(=O)O)cc1F` [Compound I-92, 2,3,4,5-tetrafluoro-6-(N-(3-fluoro-4-methoxyphenyl)sulfamoyl)benzoic acid], the concentration for half-maximal inhibition (IC50) in experiment [1] is 1 to 10 µM; in experiment [2], 0.1 to 1 µM; in experiment [3] it was above 10 µM.

As for `COC(=O)c1c(F)c(F)c(F)c(F)c1S(=O)(=O)N(C)C` [Compound I-31, methyl 2-(N,N-dimethylsulfamoyl)-3,4,5,6-tetrafluorobenzoate], the IC50 was 1 to 10 µM in experiment [1], 0.1 to 1 µM in experiment [2] and above 10 µM in experiment [3].

For `CC(=O)c1c(F)c(F)c(F)c(F)c1S(=O)(=O)N(C)C` [Compound I-26, 2-acetyl-3,4,5,6-tetrafluoro-N,N-dimethylbenzenesulfonamide], the concentration for half-maximal inhibition (IC50) in experiment [1] was 1 to 10 µM; in experiment [2], 1 to 10 µM; in experiment [3], above 10 µM.

As for `Cc1c(F)c(F)c(F)c(F)c1S(=O)(=O)N(C)C` [Compound I-25, 2,3,4,5-tetrafluoro-N,N,6-trimethylbenzenesulfonamide], the 50% inhibitory concentration (IC50) in experiment [1] was 1 to 10 µM; in experiment [3], above 10 µM.

With `CN(C)S(=O)(=O)c1c(F)c(F)c(F)c(F)c1Nc1cccnc1` [Compound I-52, 2,3,4,5-tetrafluoro-N,N-dimethyl-6-(pyridin-3-ylamino)benzenesulfonamide], the figures for the IC50 in experiment [1], in experiment [2] and in experiment [3] were above 10 µM, 1 to 10 µM and 1 to 10 µM, respectively.

As for `CN(C)S(=O)(=O)c1c(F)c(F)c(F)c(F)c1NCc1ccccc1` [Compound I-48, 2-(benzylamino)-3,4,5,6-tetrafluoro-N,N-dimethylbenzenesulfonamide], the figures for the IC50 in experiment [1], in experiment [2] and in experiment [3] were 1 to 10 µM, 1 to 10 µM and above 10 µM, respectively.

For the molecule `CN(C)S(=O)(=O)c1c(F)c(F)c(F)c(F)c1OC(=O)C(C)(C)C` [Compound I-20, 2-(N,N-dimethylsulfamoyl)-3,4,5,6-tetrafluorophenyl pivalate], the IC50 in experiment [1] was 1 to 10 µM; in experiment [3], above 10 µM.

Turning to `CC(C)Oc1c(F)c(F)c(F)c(F)c1S(=O)(=O)N(C)C` [Compound I-6, 2,3,4,5-tetrafluoro-6-isopropoxy-N,N-dimethylbenzenesulfonamide], the IC50 in experiment [1] was 1 to 10 µM; in experiment [2], 1 to 10 µM; in experiment [3] it was above 10 µM.

As to `COc1ccc(NS(=O)(=O)c2c(F)c(F)c(F)c(F)c2OC(F)(F)F)cc1F` [Compound I-84, 2,3,4,5-tetrafluoro-N-(3-fluoro-4-methoxyphenyl)-6-(trifluoromethoxy)benzenesulfonamide], the IC50 in experiment [1] and in experiment [2] was at most 0.1 µM in each case. The “% Inhibition” value in experiment [4] was “C (>20%)”. Further, in experiment [4], the “% D.O.P.” value is listed as “B (< 85%)”.

Molecule `COc1ccc(NS(=O)(=O)c2c(F)c(F)c(F)c(F)c2Oc2ccccc2)cc1F` [Compound I-76, 2,3,4,5-tetrafluoro-N-(3-fluoro-4-methoxyphenyl)-6-phenoxybenzenesulfonamide] displayed an IC50 in experiment [1] of 1 to 10 µM. Besides, in experiment [4], the “% Inhibition” value is on record as “C (>20%)” and the “% D.O.P.” value is recorded as “B (< 85%)”. Besides, the concentration for half-maximal inhibition (IC50) in experiment [3] fell in the range of 0.1 to 1 µM.

With `CN(C)S(=O)(=O)c1c(F)c(F)c(F)c(F)c1OC(=O)OC(C)(C)C` [Compound I-21, tert-butyl (2-(N,N-dimethylsulfamoyl)-3,4,5,6-tetrafluorophenyl) carbonate], the IC50 in experiment [1], in experiment [2] and in experiment [3] was above 10 µM in each case.

Regarding `CN(C)C(=O)c1c(F)c(F)c(F)c(F)c1S(=O)(=O)N(C)C` [Compound I-37, 2-(N,N-dimethylsulfamoyl)-3,4,5,6-tetrafluoro-N,N-dimethylbenzamide], the IC50 in experiment [1] was 1 to 10 µM; in experiment [2], 1 to 10 µM; in experiment [3] it was above 10 µM.

Regarding `CN(C)S(=O)(=O)c1c(F)c(F)c(F)c(F)c1NCC(F)F` [Compound I-54, 2-((2,2-difluoroethyl)amino)-3,4,5,6-tetrafluoro-N,N-dimethylbenzenesulfonamide], the IC50 in experiment [1] is 1 to 10 µM; in experiment [2] it was 1 to 10 µM; in experiment [3], above 10 µM.

Regarding `CN(C)S(=O)(=O)c1c(F)c(F)c(F)c(F)c1OC(F)F` [Compound I-8, 2-(difluoromethoxy)-3,4,5,6-tetrafluoro-N,N-dimethylbenzenesulfonamide], the IC50 in experiment [1] is above 10 µM; in experiment [2], 1 to 10 µM; in experiment [3], above 10 µM.

Turning to `CNc1c(F)c(F)c(F)c(F)c1S(=O)(=O)N(C)C` [Compound I-49, 2,3,4,5-tetrafluoro-N,N-dimethyl-6-(methylamino)benzenesulfonamide], the results for the half-inhibitory concentration (IC50) in experiment [1], in experiment [2] and in experiment [3] were 1 to 10 µM, 1 to 10 µM and above 10 µM, respectively.

With `CC(C)S(=O)(=O)Oc1c(F)c(F)c(F)c(F)c1S(=O)(=O)N(C)C` [Compound I-22, 2-(N,N-dimethylsulfamoyl)-3,4,5,6-tetrafluorophenyl propane-2-sulfonate], the results for the concentration for half-maximal inhibition (IC50) in experiment [1] and in experiment [3] were 1 to 10 µM and above 10 µM, respectively.

`CN(C)S(=O)(=O)c1c(F)c(F)c(F)c(F)c1OCc1ccc(C(N)=O)cc1` [Compound I-18, 4-((2-(N,N-dimethylsulfamoyl)-3,4,5,6-tetrafluorophenoxy)methyl)benzamide]: the results for the half-maximal inhibitory concentration (IC50) in experiment [1], in experiment [2] and in experiment [3] were 1 to 10 µM, 1 to 10 µM and above 10 µM, respectively.
